Measurements: PMC11167047 (Cell Death Discovery, 2024)

Legend:
Assay in all cases: kinome screen (33PanQinase)
Assay type in all cases: biochemical
[1] = target: T1, AKT3 (Homo sapiens, UniProt Q9Y243)
T1 construct: purchased Reaction Biology Europe GmbH (formerly ProQinase)
Experimental: (§1) The Kinome Screening was performed by Reaction Biology Europe GmbH (http://reactionbiology.com; Freiburg i. Br., Germany).

[2] = target: T2, AuroraA (Homo sapiens, UniProt O14965)
T2 construct: purchased Reaction Biology Europe GmbH (formerly ProQinase)
T2 sequence (O14965 1-403): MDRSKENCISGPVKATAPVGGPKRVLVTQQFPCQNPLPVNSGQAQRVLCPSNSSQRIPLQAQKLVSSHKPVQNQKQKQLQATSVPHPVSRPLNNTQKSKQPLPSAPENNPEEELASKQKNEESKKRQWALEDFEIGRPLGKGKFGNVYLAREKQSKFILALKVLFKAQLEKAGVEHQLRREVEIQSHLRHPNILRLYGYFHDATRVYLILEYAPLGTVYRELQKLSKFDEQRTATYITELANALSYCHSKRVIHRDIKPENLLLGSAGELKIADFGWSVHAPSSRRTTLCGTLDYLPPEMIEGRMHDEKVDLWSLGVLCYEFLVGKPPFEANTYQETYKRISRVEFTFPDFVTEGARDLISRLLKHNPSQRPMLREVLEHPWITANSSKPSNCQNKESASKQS
Experimental: as §1

[3] = target: T3, HIPK2 (Homo sapiens, UniProt Q9H2X6)
T3 construct: purchased Reaction Biology Europe GmbH (formerly ProQinase)
T3 sequence (Q9H2X6 whole entry): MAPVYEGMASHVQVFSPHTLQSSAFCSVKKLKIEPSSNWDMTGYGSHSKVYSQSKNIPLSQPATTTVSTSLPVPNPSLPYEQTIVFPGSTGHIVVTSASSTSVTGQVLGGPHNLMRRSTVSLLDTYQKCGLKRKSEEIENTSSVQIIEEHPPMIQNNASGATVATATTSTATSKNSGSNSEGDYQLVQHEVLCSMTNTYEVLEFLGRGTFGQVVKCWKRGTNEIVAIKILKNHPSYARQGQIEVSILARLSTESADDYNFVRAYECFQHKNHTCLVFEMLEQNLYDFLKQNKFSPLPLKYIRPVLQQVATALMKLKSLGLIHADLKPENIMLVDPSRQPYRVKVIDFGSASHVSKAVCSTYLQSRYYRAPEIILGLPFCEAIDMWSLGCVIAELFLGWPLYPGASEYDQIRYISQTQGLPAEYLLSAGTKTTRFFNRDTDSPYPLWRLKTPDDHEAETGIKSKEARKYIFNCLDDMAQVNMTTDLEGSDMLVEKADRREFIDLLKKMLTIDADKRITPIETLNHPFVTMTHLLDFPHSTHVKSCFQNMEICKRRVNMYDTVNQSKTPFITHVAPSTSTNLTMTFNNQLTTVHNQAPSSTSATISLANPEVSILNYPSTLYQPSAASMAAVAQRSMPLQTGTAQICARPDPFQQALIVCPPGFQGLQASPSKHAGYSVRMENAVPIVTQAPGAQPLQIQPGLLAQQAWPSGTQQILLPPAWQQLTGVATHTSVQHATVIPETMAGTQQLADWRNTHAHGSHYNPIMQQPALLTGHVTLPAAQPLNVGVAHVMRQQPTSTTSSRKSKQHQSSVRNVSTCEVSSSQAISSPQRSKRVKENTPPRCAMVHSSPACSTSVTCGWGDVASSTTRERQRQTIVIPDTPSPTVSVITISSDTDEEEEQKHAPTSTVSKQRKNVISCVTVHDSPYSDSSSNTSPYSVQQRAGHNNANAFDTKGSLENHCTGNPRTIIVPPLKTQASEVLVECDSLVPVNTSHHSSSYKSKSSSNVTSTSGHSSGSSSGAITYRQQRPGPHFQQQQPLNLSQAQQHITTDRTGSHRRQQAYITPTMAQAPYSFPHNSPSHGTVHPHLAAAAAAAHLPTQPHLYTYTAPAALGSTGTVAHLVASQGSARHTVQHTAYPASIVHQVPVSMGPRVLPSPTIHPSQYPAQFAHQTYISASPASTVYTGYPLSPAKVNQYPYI
Experimental: as §1

[4] = target: T4, MARK1 (Homo sapiens, UniProt Q9P0L2)
T4 construct: purchased Reaction Biology Europe GmbH (formerly ProQinase)
T4 sequence (Q9P0L2 whole entry): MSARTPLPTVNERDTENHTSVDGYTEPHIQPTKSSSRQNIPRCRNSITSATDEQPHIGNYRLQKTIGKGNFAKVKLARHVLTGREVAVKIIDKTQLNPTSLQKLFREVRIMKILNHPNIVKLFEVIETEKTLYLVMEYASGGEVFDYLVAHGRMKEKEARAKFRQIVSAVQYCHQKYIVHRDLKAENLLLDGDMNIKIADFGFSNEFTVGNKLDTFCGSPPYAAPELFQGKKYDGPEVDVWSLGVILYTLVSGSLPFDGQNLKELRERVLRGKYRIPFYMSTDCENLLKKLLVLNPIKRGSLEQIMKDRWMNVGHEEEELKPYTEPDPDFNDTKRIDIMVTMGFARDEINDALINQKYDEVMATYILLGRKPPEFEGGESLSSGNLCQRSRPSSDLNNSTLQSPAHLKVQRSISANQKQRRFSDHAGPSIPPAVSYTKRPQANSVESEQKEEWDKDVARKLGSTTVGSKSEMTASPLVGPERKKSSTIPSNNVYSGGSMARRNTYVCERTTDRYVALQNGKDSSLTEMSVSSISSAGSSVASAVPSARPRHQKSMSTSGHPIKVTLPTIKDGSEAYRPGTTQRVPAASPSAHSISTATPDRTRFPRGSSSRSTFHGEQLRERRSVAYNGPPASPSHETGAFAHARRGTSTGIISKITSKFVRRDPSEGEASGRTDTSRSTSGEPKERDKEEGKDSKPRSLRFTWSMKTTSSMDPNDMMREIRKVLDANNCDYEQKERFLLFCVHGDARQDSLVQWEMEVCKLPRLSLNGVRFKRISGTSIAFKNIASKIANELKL
Experimental: as §1

[5] = target: T5, MUSK (Homo sapiens, UniProt O15146)
T5 construct: purchased Reaction Biology Europe GmbH (formerly ProQinase)
T5 sequence (O15146 24-869): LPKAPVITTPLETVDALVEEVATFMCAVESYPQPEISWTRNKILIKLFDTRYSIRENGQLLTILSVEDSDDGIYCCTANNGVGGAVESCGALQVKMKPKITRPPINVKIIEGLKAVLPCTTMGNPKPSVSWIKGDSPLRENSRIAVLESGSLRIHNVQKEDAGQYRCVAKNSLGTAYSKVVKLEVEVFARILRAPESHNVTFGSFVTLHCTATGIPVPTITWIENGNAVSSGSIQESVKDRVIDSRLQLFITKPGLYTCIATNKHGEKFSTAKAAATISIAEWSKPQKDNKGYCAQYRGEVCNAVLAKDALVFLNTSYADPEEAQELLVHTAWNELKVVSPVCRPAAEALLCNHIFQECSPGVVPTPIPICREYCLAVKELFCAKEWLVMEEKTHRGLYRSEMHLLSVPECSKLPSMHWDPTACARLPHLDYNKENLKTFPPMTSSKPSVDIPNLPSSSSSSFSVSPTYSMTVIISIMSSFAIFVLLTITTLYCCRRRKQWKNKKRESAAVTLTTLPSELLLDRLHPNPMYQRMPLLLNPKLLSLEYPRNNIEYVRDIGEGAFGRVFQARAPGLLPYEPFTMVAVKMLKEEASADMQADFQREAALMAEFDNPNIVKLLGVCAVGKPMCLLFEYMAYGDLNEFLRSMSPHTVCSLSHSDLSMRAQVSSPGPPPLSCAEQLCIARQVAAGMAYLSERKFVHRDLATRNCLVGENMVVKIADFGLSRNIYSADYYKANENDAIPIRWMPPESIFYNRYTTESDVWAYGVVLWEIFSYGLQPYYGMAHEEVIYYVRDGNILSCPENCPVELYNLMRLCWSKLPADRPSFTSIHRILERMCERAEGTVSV
Experimental: as §1

[6] = target: T6, NEK3 (Homo sapiens, UniProt P51956)
T6 construct: purchased Reaction Biology Europe GmbH (formerly ProQinase)
T6 sequence (P51956 1-506): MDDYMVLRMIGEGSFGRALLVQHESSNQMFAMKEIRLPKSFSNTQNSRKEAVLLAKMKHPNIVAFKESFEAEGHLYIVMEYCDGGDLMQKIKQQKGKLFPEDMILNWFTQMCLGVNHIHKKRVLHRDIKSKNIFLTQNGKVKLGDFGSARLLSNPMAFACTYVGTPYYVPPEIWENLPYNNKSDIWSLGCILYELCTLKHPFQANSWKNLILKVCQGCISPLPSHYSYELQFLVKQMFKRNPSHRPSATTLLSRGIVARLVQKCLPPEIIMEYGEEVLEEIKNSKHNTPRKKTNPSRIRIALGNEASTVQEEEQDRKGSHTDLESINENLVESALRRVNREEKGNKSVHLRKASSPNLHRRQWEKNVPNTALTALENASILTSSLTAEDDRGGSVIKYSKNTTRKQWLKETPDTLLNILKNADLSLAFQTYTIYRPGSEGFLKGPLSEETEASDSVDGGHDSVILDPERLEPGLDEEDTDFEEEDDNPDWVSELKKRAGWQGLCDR
Experimental: as §1

[7] = target: T7, PKCη (Homo sapiens, UniProt P24723)
T7 construct: purchased Reaction Biology Europe GmbH (formerly ProQinase)
T7 sequence (P24723 whole entry): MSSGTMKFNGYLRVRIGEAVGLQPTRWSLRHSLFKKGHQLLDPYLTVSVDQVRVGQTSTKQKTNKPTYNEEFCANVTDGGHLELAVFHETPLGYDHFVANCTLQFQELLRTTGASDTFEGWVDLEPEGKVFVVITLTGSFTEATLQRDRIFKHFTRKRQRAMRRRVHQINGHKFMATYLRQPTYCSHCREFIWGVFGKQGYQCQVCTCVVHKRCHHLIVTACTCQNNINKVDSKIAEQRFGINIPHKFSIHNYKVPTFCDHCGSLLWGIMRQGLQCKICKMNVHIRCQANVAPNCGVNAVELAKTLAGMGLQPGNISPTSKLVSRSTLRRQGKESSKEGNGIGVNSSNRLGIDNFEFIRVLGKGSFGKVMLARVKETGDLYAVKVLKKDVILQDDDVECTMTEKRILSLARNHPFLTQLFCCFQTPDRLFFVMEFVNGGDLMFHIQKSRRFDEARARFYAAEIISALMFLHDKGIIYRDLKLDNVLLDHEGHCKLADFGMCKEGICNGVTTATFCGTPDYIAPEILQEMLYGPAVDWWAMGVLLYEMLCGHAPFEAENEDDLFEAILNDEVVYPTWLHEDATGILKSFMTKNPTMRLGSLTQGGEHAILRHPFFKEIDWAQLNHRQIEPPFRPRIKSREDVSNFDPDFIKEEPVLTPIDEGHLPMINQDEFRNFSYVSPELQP
Experimental: as §1

[8] = target: T8, RET (Homo sapiens, UniProt P07949)
T8 construct: purchased Reaction Biology Europe GmbH (formerly ProQinase)
T8 sequence (P07949 29-1114): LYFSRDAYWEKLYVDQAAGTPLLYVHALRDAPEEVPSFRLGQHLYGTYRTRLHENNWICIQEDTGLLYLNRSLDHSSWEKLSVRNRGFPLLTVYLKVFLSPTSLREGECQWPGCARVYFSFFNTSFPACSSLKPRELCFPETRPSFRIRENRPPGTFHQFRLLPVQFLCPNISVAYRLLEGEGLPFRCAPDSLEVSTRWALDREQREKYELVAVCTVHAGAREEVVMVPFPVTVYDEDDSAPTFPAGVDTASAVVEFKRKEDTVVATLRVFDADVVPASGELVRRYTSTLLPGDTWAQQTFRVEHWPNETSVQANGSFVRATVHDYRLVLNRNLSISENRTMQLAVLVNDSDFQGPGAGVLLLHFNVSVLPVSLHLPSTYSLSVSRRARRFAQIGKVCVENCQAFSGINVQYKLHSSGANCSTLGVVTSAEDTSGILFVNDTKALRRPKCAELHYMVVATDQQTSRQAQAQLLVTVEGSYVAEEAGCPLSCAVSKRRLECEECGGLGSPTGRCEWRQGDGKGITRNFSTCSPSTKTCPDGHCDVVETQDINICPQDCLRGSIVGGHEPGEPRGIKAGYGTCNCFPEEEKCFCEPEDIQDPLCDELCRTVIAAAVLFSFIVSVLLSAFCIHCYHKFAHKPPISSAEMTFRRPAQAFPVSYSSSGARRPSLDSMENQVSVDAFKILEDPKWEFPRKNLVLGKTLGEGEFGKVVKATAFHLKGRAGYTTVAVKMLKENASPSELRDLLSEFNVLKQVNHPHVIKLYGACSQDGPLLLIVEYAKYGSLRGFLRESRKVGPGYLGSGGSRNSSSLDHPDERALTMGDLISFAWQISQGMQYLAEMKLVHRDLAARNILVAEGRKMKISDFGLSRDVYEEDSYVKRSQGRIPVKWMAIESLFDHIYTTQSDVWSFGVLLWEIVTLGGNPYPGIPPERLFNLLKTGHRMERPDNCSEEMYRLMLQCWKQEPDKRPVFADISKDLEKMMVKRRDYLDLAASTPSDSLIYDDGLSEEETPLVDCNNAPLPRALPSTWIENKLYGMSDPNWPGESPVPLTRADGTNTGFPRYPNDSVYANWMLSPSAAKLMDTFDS
Experimental: as §1

[9] = target: T9, TEC (Homo sapiens, UniProt P42680)
T9 construct: purchased Reaction Biology Europe GmbH (formerly ProQinase)
T9 sequence (P42680 1-631): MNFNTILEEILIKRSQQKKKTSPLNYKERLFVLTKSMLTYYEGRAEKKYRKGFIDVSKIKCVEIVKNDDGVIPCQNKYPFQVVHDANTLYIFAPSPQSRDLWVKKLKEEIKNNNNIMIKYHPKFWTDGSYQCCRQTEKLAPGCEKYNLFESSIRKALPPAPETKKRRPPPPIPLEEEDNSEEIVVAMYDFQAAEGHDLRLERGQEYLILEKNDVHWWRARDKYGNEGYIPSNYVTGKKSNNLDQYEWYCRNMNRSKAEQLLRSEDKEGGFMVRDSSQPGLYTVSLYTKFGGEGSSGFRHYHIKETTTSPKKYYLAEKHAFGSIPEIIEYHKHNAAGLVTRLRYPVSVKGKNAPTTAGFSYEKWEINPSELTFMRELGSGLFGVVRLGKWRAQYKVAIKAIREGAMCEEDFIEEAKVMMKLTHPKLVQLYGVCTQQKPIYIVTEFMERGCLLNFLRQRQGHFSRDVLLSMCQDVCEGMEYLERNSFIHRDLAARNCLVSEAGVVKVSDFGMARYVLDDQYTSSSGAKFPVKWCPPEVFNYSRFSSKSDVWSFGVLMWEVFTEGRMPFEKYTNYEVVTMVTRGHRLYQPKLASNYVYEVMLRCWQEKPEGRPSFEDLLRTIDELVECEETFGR
Experimental: as §1

T1 sequence (Q9Y243 whole entry): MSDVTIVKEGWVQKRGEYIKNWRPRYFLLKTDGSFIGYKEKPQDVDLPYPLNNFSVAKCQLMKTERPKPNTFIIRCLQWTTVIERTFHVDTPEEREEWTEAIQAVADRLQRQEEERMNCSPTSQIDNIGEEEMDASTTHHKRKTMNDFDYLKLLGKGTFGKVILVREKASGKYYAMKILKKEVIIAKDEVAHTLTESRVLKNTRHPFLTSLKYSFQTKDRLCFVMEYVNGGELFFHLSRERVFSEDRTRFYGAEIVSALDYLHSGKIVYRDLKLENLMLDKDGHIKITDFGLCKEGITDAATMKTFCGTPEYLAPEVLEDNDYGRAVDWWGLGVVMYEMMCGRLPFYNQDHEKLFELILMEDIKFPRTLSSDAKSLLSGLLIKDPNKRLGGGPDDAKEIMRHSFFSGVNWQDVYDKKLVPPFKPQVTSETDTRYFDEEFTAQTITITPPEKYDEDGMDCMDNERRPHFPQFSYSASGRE

Structure (SMILES): COc1ccnc2[nH]cc(-c3cc(N)nc(N)c3)c12 [meriolin 16]
- residual kinase activity ([1]; 0.03 µM): 108 % of control
- residual kinase activity ([1]; 0.3 µM): 82 % of control
- residual kinase activity ([2]; 0.03 µM): 109 % of control
- residual kinase activity ([2]; 0.3 µM): 107 % of control
- residual kinase activity ([3]; 0.03 µM): 36 % of control
- residual kinase activity ([3]; 0.3 µM): 4 % of control
- residual kinase activity ([4]; 0.03 µM): 121 % of control
- residual kinase activity ([4]; 0.3 µM): 101 % of control
- residual kinase activity ([5]; 0.03 µM): 88 % of control
- residual kinase activity ([5]; 0.3 µM): 70 % of control
- residual kinase activity ([6]; 0.03 µM): 96 % of control
- residual kinase activity ([6]; 0.3 µM): 78 % of control
- residual kinase activity ([7]; 0.03 µM): 8 % of control
- residual kinase activity ([7]; 0.3 µM): 2 % of control
- residual kinase activity ([8]; 0.03 µM): 106 % of control
- residual kinase activity ([8]; 0.3 µM): 100 % of control
- residual kinase activity ([9]; 0.03 µM): 110 % of control
- residual kinase activity ([9]; 0.3 µM): 101 % of control

Structure (SMILES): c1ccc(CNc2cc(-c3c[nH]c4ncccc34)ccn2)cc1 [meriolin 36]
- residual kinase activity ([1]; 0.3 µM): 93 % of control
- residual kinase activity ([1]; 3 µM): 42 % of control
- residual kinase activity ([2]; 0.3 µM): 81 % of control
- residual kinase activity ([2]; 3 µM): 35 % of control
- residual kinase activity ([3]; 0.3 µM): 22 % of control
- residual kinase activity ([3]; 3 µM): 3 % of control
- residual kinase activity ([4]; 0.3 µM): 90 % of control
- residual kinase activity ([4]; 3 µM): 43 % of control
- residual kinase activity ([5]; 0.3 µM): 28 % of control
- residual kinase activity ([5]; 3 µM): 5 % of control
- residual kinase activity ([6]; 0.3 µM): 94 % of control
- residual kinase activity ([6]; 3 µM): 79 % of control
- residual kinase activity ([7]; 0.3 µM): 2 % of control
- residual kinase activity ([7]; 3 µM): 2 % of control
- residual kinase activity ([8]; 0.3 µM): 61 % of control
- residual kinase activity ([8]; 3 µM): 12 % of control
- residual kinase activity ([9]; 0.3 µM): 114 % of control
- residual kinase activity ([9]; 3 µM): 96 % of control
